Results from patent publication US20230372357A1, “STABLE PHARMACEUTICAL COMPOSITION” (SANTEN PHARMACEUTICAL CO., LTD., priority 2020, published 2023).

What was measured:
[1] = Finding at development stage: compound dissolved as aqueous composition; format: physicochemical
[2] = intracameral injection; cited from earlier work

hydrolysis of the compound in an aqueous composition ([1]; dissolved and prepared in the form of an aqueous composition)	Compound	degradation of the compound under light irradiation ([1]; under the light irradiation)	intraocular pressure [2]
susceptible to hydrolysis	CCN(CC)C[C@H]1CCCCN1CC(=O)N1c2ccccc2C(=O)Nc2cccnc21 [AFDX0250, (+)-11-[2-[2-[(diethylamino)methyl]-1-piperidinyl]acetyl]-5,11-dihydro-6H-pyrido[2,3-b][1,4]benzodiazepin-6-one]	easily degraded under the light irradiation	–
–	CCN(CC)CC1CCCCN1CC(=O)N1c2ccccc2C(=O)Nc2cccnc21 (stereo not drawn) [AFDX0116, 11-[2-[2-[(diethylamino)methyl]-1-piperidinyl]acetyl]-5,11-dihydro-6H-pyrido[2,3-b][1,4]benzodiazepin-6-one]	–	decreased
